Results on three molecules are retold here after article PMC7363035 (ACS infectious diseases, 2020).

Read-outs that look alike come from different tables or passages of the source. Marks after values point to notes of the source that are not given here.

Data set [1] can be described thus: Mouse pharmacokinetics after a single oral dose. The data set is classed as in vivo.
A short description of the next data set: Mouse liver microsome. The conditions noted are these: mouse liver microsomes; data generated via Medicines for Malaria Venture. Type of data set: in vitro ADME. (In general: Microsomes from liver hold many membrane-bound enzymes, among them those of drug oxidation.)
A short description of another data set: Solubility in PBS pH 7.4. Type of data set: physicochemical.
Data set [2] is described as follows: Log D in octanol/PBS pH 7.4. Type of data set: physicochemical.
For data set [3] the following is noted: cited from earlier work.
The next data set concerns P. berghei. Particulars: cited from earlier work.
For data set [4] the following is noted: human liver microsomes; cited from earlier work.
For data set [5] the following is noted: cited from earlier work. The source holds these as a separate data set.
Setting [6] is: single dose of 50 mg/kg by oral gavage, male CD-1 mice.
[7] abbreviates: male, CD-1, mouse, plasma, po, 50 mg/kg.

Turning to `O=C(O[C@@H]1CCC[C@]2(C1)OOC1(O2)C2CC3CC(C2)CC1C3)N1CCNCC1` (stereo partly drawn) [8e, (1R,3”R)-Dispiro[adamantane-2,3’-[1,2,4]trioxolane-5’,1”-cyclohexan]-3”-yl piperazine-1-carboxylate], the “fold lower systemic exposure than 8c or 8n” value in data set [1] (mouse PK study with oral dosing) is reported as “~ three-fold”. In data set [1] (setting [6]), the AUClast turned out to be 1070 ± 127 ng·h/mL; the Cmax – broadly, the maximum level reached in the sampled fluid or tissue – was determined as 223 ± 25 ng/mL; the Tmax (as a rule, the time at which the peak concentration occurs) was 2 h. For the same molecule, in “Mouse liver microsome”, the “MLM CLint” value came to 321 µL/min/mg and the “MLM T1/2” value worked out at 4.3 min. Besides, the “Solubility in PBS pH 7.4” value in the data set “Solubility in PBS pH 7.4” is on record as 157.0 μM. Further, in data set [2] (data generated via Medicines for Malaria Venture), the “Log D in octanol/PBS; pH 7.4” value came out at 3.25.
Turning to `CC(C)(N)CNC(=O)C[C@H]1CC[C@]2(CC1)OO[C@]1(O2)C2CC3CC(C2)CC1C3` [OZ277, arterolane], the “Solubility in PBS pH 7.4” value in data set [3] is on record as 504 μM. The cures in the data set on P. berghei (Experiment 1, PO 6 mg/kg/day (4 days), female Swiss Webster mice, cured = parasitemia undetectable at day 30) was 4/5. In data set [4], the “HLM CLint” value is less than 7 µL/min/mg and the “HLM T1/2” value was greater than 1 h.
Turning to `c1cc([C@H]2CC[C@]3(CC2)OO[C@]2(O3)C3CC4CC(C3)CC2C4)ccc1OCCN1CCOCC1` [OZ439, artefenomel], in data set [1] (setting [7]), the AUC(0-t) (commonly the area under the concentration-time curve up to a stated or last time point) is 52600 ± 4810 ng·h/mL and the Tmax was determined as 2 h. Besides, in data set [3], the “Solubility in PBS pH 7.4” value is 0.181^b μM. In the data set with P. berghei (single dose), the “effective single dose in the P. berghei model” value was 20 mg/kg. Further, the “Log D in octanol/PBS; pH 7.4” value in data set [5] is on record as 5.5. Moreover, the logD (in general, lipophilicity at a set pH, counting ionised and neutral species) in data set [2] came to 5.81.
